From patent US8609715B2, “Heteroarylcarboxylic acid ester derivative” (Ajinomoto Co., Inc., priority 2009, dated 2013)
pKi: −log10 of the molar value. Structures can show the parent of a compound that is named as a salt.

Target: recombinant human enteropeptidase (Homo sapiens (Human), UniProt P98073)
Test: Measurement of enteropeptidase inhibitory activity
Assay type: biochemical
Conditions: Dixon plot
Protocol: Measurement of Enteropeptidase Inhibitory Activity
Using a 96 well plate (#3915, Costar), a test compound (25 μL), 400 mM Tris-HCl buffer (pH 8.0, 25 μL) and 0.5 mg/mL fluorescence enzyme substrate (Gly-Asp-Asp-Asp-Asp-Lys-β-Naphtylamide, 25 μL) were mixed, and recombinant human enteropeptidase (R&D Systems, Inc., 25 μL) was added. Using a fluorescence plate reader fmax (Molecular Devices, Inc.), the reaction rate was measured from the time-course changes at excitation wavelength 320 nm and fluorescence wavelength 405 nm. The Ki value was calculated from the concentration of the test compound, reciprocal of reaction rate, and Km value of the enzyme substrate, and by using Dixon plot.

Sequence of recombinant human enteropeptidase (P98073 whole entry): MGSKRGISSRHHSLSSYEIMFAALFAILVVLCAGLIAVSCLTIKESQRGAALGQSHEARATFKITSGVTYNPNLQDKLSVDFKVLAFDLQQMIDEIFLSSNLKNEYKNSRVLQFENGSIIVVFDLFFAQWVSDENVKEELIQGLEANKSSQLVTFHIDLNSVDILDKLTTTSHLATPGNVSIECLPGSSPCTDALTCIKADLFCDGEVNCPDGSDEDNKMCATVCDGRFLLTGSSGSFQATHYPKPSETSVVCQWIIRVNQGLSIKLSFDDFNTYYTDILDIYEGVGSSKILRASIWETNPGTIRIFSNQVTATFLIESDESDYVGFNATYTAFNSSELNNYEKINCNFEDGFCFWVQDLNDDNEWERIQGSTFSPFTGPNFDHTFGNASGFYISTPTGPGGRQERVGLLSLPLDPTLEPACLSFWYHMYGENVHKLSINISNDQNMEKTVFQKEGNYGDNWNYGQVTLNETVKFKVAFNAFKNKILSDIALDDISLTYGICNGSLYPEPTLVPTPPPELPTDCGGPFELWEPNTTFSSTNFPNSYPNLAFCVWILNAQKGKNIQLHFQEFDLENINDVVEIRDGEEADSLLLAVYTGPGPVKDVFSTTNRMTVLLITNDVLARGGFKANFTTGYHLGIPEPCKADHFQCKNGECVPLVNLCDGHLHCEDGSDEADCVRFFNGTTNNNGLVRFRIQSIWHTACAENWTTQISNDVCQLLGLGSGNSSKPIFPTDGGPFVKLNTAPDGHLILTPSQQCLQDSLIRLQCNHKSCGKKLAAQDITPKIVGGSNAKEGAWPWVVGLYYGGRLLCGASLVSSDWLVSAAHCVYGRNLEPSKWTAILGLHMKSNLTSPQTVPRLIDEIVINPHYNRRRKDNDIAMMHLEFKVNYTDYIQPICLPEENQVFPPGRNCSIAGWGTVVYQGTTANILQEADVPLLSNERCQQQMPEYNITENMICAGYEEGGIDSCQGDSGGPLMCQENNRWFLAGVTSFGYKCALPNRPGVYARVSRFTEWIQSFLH

| Compound | pKi |
| --- | --- |
| CC(Cc1ccc(C(=O)Oc2ccc(C(=N)N)cc2)o1)C(=O)O (stereo in doubt) [Compound A-42, 3-[5-(4-amidinophenoxycarbonyl)furan-2-yl]-2R-methylpropionic acid trifluoroacetic acid salt] | 9.15 |
| C/C(=C\c1ccc(C(=O)Oc2ccc(C(=N)N)cc2)o1)C(=O)N[C@@H](CO)C(=O)O [Compound A-1] | 8.64 |
| C/C(=C\c1ccc(C(=O)Oc2ccc(C(=N)N)cc2)o1)C(=O)NCC(=O)O [Compound A-2] | 8.71 |
| C/C(=C\c1ccc(C(=O)Oc2ccc(C(=N)N)cc2)o1)C(=O)O [Compound A-3, (2E)-3-[5-(4-amidinophenoxycarbonyl)-furan-2-yl]-2-methylpropenoic acid trifluoroacetic acid salt] | 8.94 |
| CC(Cc1ccc(C(=O)Oc2ccc(C(=N)N)cc2)o1)C(=O)NCC(=O)O (stereo not drawn) [Compound A-4] | 8.57 |
| CC(Cc1ccc(C(=O)Oc2ccc(C(=N)N)cc2)o1)C(=O)N[C@@H](CO)C(=O)O (stereo partly drawn) [Compound A-5] | 8.86 |
| CC(Cc1ccc(C(=O)Oc2ccc(C(=N)N)cc2)o1)C(=O)O (stereo not drawn) [Compound A-6, 3-[5-(4-amidinophenoxycarbonyl)furan-2-yl]-2-methylpropionic acid trifluoroacetic acid salt] | 9.21 |
| C/C(=C\c1ccc(C(=O)Oc2ccc(C(=N)N)cc2)o1)C(=O)N(CCCO)CC(=O)O [Compound A-7] | 8.83 |
| CC(Cc1ccc(C(=O)Oc2ccc(C(=N)N)cc2)o1)C(=O)N(CCCO)CC(=O)O (stereo not drawn) [Compound A-9] | 8.50 |
| C/C(=C\c1ccc(C(=O)Oc2ccc(C(=N)N)cc2)o1)C(=O)N(CCO)Cc1ccccc1 [Compound A-10] | 8.17 |
| C/C(=C\c1ccc(C(=O)Oc2ccc(C(=N)N)cc2)o1)C(=O)N(CCCO)CCC(=O)O [Compound A-12, N-{(2E)-3-[5-(4-amidino-2-phenoxycarbonyl)furan-2-yl]-2-methylpropenoyl}-N-(3-hydroxypropyl)-β-alanine trifluoroacetic acid salt] | 8.48 |
| C/C(=C\c1ccc(C(=O)Oc2ccc(C(=N)N)cc2)o1)C(=O)N[C@H](C(=O)O)C(C)O (stereo partly drawn) [Compound A-14] | 8.45 |
| CC(Cc1ccc(C(=O)Oc2ccc(C(=N)N)cc2)o1)C(=O)N[C@@H](CCC(=O)O)C(=O)O (stereo partly drawn) [Compound A-15] | 8.79 |
| CC(Cc1ccc(C(=O)Oc2ccc(C(=N)N)cc2)o1)C(=O)N[C@H](C(=O)O)C(C)O (stereo partly drawn) [Compound A-16] | 8.73 |
| CC(Cc1ccc(C(=O)Oc2ccc(C(=N)N)cc2)o1)C(=O)N[C@@H](CC(=O)O)C(=O)O (stereo partly drawn) [Compound A-18] | 9.21 |
| CC(Cc1ccc(C(=O)Oc2ccc(C(=N)N)cc2)o1)C(=O)N1CCC[C@@H]1C(=O)O (stereo partly drawn) [Compound A-19] | 8.72 |
| CC(Cc1ccc(C(=O)Oc2ccc(C(=N)N)cc2)o1)C(=O)N1C[C@H](O)C[C@@H]1C(=O)O (stereo partly drawn) [Compound A-20] | 8.60 |
| CC(Cc1ccc(C(=O)Oc2ccc(C(=N)N)cc2)o1)C(=O)N1C[C@@H](O)C[C@H]1C(=O)O (stereo partly drawn) [Compound A-21] | 8.32 |
| C[C@H](Cc1ccc(C(=O)Oc2ccc(C(=N)N)cc2)o1)C(=O)N[C@@H](CC(N)=O)C(=O)O [Compound A-22] | 9.02 |
| C[C@@H](Cc1ccc(C(=O)Oc2ccc(C(=N)N)cc2)o1)C(=O)N[C@@H](CC(N)=O)C(=O)O [Compound A-23] | 8.70 |
| CC(Cc1ccc(C(=O)Oc2ccc(C(=N)N)cc2)o1)C(=O)N(CC(=O)O)CC(=O)O (stereo not drawn) [Compound A-26] | 9.17 |
| CC(Cc1ccc(C(=O)Oc2ccc(C(=N)N)cc2)o1)C(=O)N[C@H](CCC(=O)O)C(=O)O (stereo partly drawn) [Compound A-27] | 9.24 |
| CC(Cc1ccc(C(=O)Oc2ccc(C(=N)N)cc2)o1)C(=O)N[C@H](CC(=O)O)C(=O)O (stereo partly drawn) [Compound A-28] | 9.38 |
| CCC(Cc1ccc(C(=O)Oc2ccc(C(=N)N)cc2)o1)C(=O)O (stereo not drawn) [Compound A-29, 3-[5-(4-amidinophenoxycarbonyl)furan-2-yl]-2-ethylpropionic acid trifluoroacetic acid salt] | 9.09 |
| CC[C@H](Cc1ccc(C(=O)Oc2ccc(C(=N)N)cc2)o1)C(=O)N[C@H](CCC(=O)O)C(=O)O [Compound A-30] | 8.99 |
| CCC(Cc1ccc(C(=O)Oc2ccc(C(=N)N)cc2)o1)C(=O)N[C@H](CC(=O)O)C(=O)O (stereo partly drawn) [Compound A-31] | 9.30 |

| Compound | pKi |
| --- | --- |
| N=C(N)c1ccc(OC(=O)c2ccc(CC(=O)O)o2)cc1 [Compound A-32, 5-(4-amidinophenoxycarbonyl)furan-2-ylacetic acid trifluoroacetic acid salt] | 9.21 |
| CC(Cc1ccc(C(=O)Oc2ccc(C(=N)N)cc2F)o1)C(=O)O (stereo not drawn) [Compound A-33] | 9.19 |
| CCCC(Cc1ccc(C(=O)Oc2ccc(C(=N)N)cc2)o1)C(=O)O (stereo not drawn) [Compound A-34] | 9.01 |
| CC(Cc1ccc(C(=O)Oc2ccc(C(=N)N)cc2F)o1)C(=O)N[C@H](CC(=O)O)C(=O)O (stereo partly drawn) [Compound A-35, N-{3-[5-(4-amidino-2-fluorophenoxycarbonyl)furan-2-yl]-2-methylpropanoyl}-N-(D)-aspartic acid trifluoroacetic acid salt] | 9.60 |
| CC(Cc1ccc(C(=O)Oc2ccc(C(=N)N)cc2)o1)S(=O)(=O)O (stereo not drawn) [Compound A-36, 1-[5-(4-amidinophenoxycarbonyl)furan-2-yl]propane-2-sulfonic acid trifluoroacetic acid salt] | 9.24 |
| N=C(N)c1ccc(OC(=O)c2ccc(CCC(=O)O)o2)cc1 [Compound A-37] | 9.19 |
| N=C(N)c1ccc(OC(=O)c2ccc(CCC(=O)N[C@@H](CC(=O)O)C(=O)O)o2)cc1 [Compound A-38] | 9.24 |
| N=C(N)c1ccc(OC(=O)c2ccc(CC(=O)N[C@@H](CC(=O)O)C(=O)O)o2)cc1 [Compound A-39, N-[5-(4-amidinophenoxycarbonyl)furan-2-ylacetyl]-(L)-aspartic acid trifluoroacetic acid salt] | 9.17 |
| C[C@H](Cc1ccc(C(=O)Oc2ccc(C(=N)N)cc2)o1)C(=O)O [Compound A-41, 3-[5-(4-amidinophenoxycarbonyl)furan-2-yl]-2S-methylpropionic acid trifluoroacetic acid salt] | 9.30 |
| C[C@@H](Cc1ccc(C(=O)Oc2ccc(C(=N)N)cc2)o1)C(=O)N[C@@H](CC(=O)O)C(=O)O [Compound A-43, N-{3-[5-(4-amidinophenoxycarbonyl)-furan-2-yl]-2S-methylpropionyl}-L-aspartic acid trifluoroacetic acid salt] | 9.40 |
| C[C@H](Cc1ccc(C(=O)Oc2ccc(C(=N)N)cc2)o1)C(=O)N[C@@H](CC(=O)O)C(=O)O [Compound A-44, N-[3-[5-(4-amidinophenoxycarbonyl)-furan-2-yl]-2R-methylpropionyl]-L-aspartic acid trifluoroacetic acid salt] | 9.48 |
| C[C@@H](Cc1ccc(C(=O)Oc2ccc(C(=N)N)cc2)o1)C(=O)N[C@H](CC(=O)O)C(=O)O [Compound A-45, N-{3-[5-(4-amidinophenoxycarbonyl)-furan-2-yl]-2S-methylpropionyl}-D-aspartic acid trifluoroacetic acid salt] | 9.34 |
| C[C@H](Cc1ccc(C(=O)Oc2ccc(C(=N)N)cc2)o1)C(=O)N[C@H](CC(=O)O)C(=O)O [Compound A-46, N-{3-[5-(4-amidinophenoxycarbonyl)-furan-2-yl]-2R-methylpropionyl}-D-aspartic acid trifluoroacetic acid salt] | 9.46 |
| CC(Cc1ccc(C(=O)Oc2ccc(C(=N)N)cc2)o1)C(=O)NCCc1ccccc1 (stereo not drawn) [Compound A-47, 5-{2-methyl-2-[(2-phenylethyl)-carbamoyl]ethyl}furan-2-carboxylic acid 4-amidinophenyl ester trifluoroacetic acid salt] | 8.72 |
| CC(C)CCNC(=O)C(C)Cc1ccc(C(=O)Oc2ccc(C(=N)N)cc2)o1 (stereo not drawn) [Compound A-48] | 8.89 |
| CC(Cc1ccc(C(=O)Oc2ccc(C(=N)N)cc2)o1)C(=O)NCCN(C)C (stereo not drawn) [Compound A-49] | 8.12 |
| CC(Cc1ccc(C(=O)Oc2ccc(C(=N)N)cc2)o1)C(=O)NCCO (stereo not drawn) [Compound A-50] | 8.36 |
| CC(Cc1ccc(C(=O)Oc2ccc(C(=N)N)cc2)o1)C(=O)N1CCCC1 (stereo not drawn) [Compound A-51] | 8.31 |
| CC(Cc1ccc(C(=O)Oc2ccc(C(=N)N)cc2)o1)C(=O)N1CCCC(C(=O)O)C1 (stereo not drawn) [Compound A-52, N-{3-[5-(4-amidinophenoxycarbonyl)-furan-2-yl]-2-methylpropanoyl}nipecotic acid trifluoroacetic acid salt] | 8.60 |
| C=CCN(CC(=O)O)C(=O)CCc1ccc(C(=O)Oc2ccc(C(=N)N)cc2)o1 [Compound A-55, N-{3-[5-(4-amidinophenoxycarbonyl)-furan-2-yl]-propionyl}-N-allylglycine trifluoroacetic acid salt] | 8.89 |
| CC(Cc1ccc(C(=O)Oc2ccc(C(=N)N)cc2)o1)C(=O)NCP(=O)(O)O (stereo not drawn) [Compound A-56] | 8.96 |
| CC(Cc1ccc(C(=O)Oc2ccc(C(=N)N)cc2)o1)C(=O)N[C@@H](CS(=O)(=O)O)C(=O)O (stereo partly drawn) [Compound A-57] | 9.41 |
| CC(CCC(=O)O)Cc1ccc(C(=O)Oc2ccc(C(=N)N)cc2)o1 (stereo not drawn) [Compound A-58, 5-[5-(4-amidinophenoxycarbonyl)furan-2-yl]-4-methylpentanoic acid trifluoroacetic acid salt] | 9.15 |
| CC(CCC(=O)N[C@@H](CC(=O)O)C(=O)O)Cc1ccc(C(=O)Oc2ccc(C(=N)N)cc2)o1 (stereo partly drawn) [Compound A-59, N-{5-[5-(4-amidinophenoxycarbonyl)furan-2-yl]-4-methylpentanoyl}-L-aspartic acid trifluoroacetic acid salt] | 9.46 |
| N=C(N)c1ccc(OC(=O)c2ccc(CC(CCC(=O)O)C(=O)O)o2)cc1 (stereo not drawn) [Compound A-60, 5-[5-(4-amidinophenoxycarbonyl)furan-2-yl]-4-carboxypentanoic acid trifluoroacetic acid salt] | 9.51 |
